# Data from article PMC9862037, “Interactions of Mycotoxin Alternariol with Cytochrome P450 Enzymes and OATP Transporters” (Metabolites, 2022).
# Like-named read-outs stand apart in the source and are kept apart here.
# Columns and labels:
# CYP2C19 = biological target: T1, CYP2C19 (Homo sapiens, UniProt P33261); format: in vitro ADME; settings: 5 μM AOH; significant (p < 0.01) only after 120 min
# T1 construct: purchased Merck; host or cells: yeast (inferred from the description of the CYPnull control, 'processed identically')
# T1 sequence (P33261 whole entry): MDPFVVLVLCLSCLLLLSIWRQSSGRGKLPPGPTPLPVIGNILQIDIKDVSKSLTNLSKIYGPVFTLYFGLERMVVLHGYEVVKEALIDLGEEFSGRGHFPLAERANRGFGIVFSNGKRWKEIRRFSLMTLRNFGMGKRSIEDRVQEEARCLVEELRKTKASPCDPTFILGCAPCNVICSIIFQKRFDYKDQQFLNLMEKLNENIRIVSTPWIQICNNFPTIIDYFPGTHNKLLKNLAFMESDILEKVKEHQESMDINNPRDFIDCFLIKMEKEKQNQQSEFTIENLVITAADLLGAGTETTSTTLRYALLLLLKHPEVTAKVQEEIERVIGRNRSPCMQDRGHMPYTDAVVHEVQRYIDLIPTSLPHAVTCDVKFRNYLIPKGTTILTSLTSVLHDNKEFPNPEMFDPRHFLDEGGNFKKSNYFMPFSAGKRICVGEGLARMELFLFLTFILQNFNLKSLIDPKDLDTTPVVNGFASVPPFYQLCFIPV
# Description: (§1) To test the potential biotransformation of AOH by CYPs, the changes in the concentrations of AOH were examined in the presence of CYP1A2, 2C9, 2C19, 2D6, or 3A4 enzymes. Samples (final volume: 200 μL) containing AOH (5 μM), glucose-6-phosphate (500 μM), nicotinamide adenine dinucleotide phosphate (NADP^+, 200 μM), and the enzymes (CypExpress Cytochrome P450 reagents: 15 mg/mL each; including both CYP and glucose-6-phosphate dehydrogenase enzymes) were incubated for 0, 30, 60, 90, and 120 min (700 rpm, 30 °C) in potassium phosphate buffer (0.05 M, pH 7.5). The reaction was stopped by the addition of ice-cold methanol (100 μL), then the samples were centrifuged (10 min, 14,000 g, room temperature). AOH content of the supernatants was directly analyzed by HPLC-FLD (see details in Section 2.7). As a control, CypExpress Control reagent (CYPnull; 15 mg/mL) was also applied, which is a permeabilized and stabilized dried yeast powder (produced using an empty vector) and processed identically to CypExpress Cytochrome P450 products.
# (§2) In CYP experiments, AOH was quantified with the above-described HPLC system, except that a fluorescence detector (FP-920; Jasco, Tokyo, Japan) was applied. Samples (20 μL) were driven through a Phenomenex Security Guard (C18, 4.0 × 3.0 mm) precolumn (Phenomenex, Torrance, CA, USA) linked to a Kinetex EVO-C18 (250 × 4.6 mm, 5 μm; Phenomenex) analytical column with 1.0 mL/min flow rate, at room temperature. For the isocratic elution, a mobile phase with 1 mM phosphoric acid (pH 3.0) and acetonitrile (65:35 v/v%) was applied. AOH was detected at 455 nm (λex = 345 nm). Limit of detection (LOD) and limit of quantification (LOQ) were established as the lowest concentrations when the signal-to-noise ratios were three and ten, respectively. The major validation parameters of this HPLC-FLD method were the following: linearity (R^2 = 0.997, in the 100–1000 nM concentration range); LOD = 100 nM; LOQ = 200 nM; intraday precision = 2.9% (n = 7); accuracy = 3.4% (n = 7).
# CYP1A2 = biological target: T2, CYP1A2 (Homo sapiens, UniProt P05177); format: in vitro ADME; settings: 5 μM AOH
# T2 construct: purchased Abcam ab211075
# T2 sequence (P05177 whole entry): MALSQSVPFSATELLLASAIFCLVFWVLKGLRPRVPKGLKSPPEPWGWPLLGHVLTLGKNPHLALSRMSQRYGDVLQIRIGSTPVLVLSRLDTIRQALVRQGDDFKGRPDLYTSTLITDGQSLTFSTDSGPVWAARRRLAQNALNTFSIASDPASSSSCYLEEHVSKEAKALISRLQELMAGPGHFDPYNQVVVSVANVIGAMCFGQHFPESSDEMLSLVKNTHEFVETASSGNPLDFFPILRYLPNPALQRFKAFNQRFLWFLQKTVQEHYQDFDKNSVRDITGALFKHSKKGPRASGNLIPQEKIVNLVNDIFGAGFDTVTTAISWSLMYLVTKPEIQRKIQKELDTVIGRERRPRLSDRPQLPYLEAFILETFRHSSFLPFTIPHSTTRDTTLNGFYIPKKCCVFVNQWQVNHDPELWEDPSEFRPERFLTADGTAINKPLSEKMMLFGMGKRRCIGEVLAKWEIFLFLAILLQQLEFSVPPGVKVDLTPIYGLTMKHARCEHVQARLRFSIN
# Description: as §1, §2
# CYP2D6 = biological target: T3, CYP2D6 (Homo sapiens, UniProt P10635); format: in vitro ADME; settings: 5 μM AOH; 120 min incubation; vs CYPnull
# T3 construct: purchased Merck; host or cells: yeast (inferred from the description of the CYPnull control, 'processed identically')
# T3 sequence (P10635 whole entry): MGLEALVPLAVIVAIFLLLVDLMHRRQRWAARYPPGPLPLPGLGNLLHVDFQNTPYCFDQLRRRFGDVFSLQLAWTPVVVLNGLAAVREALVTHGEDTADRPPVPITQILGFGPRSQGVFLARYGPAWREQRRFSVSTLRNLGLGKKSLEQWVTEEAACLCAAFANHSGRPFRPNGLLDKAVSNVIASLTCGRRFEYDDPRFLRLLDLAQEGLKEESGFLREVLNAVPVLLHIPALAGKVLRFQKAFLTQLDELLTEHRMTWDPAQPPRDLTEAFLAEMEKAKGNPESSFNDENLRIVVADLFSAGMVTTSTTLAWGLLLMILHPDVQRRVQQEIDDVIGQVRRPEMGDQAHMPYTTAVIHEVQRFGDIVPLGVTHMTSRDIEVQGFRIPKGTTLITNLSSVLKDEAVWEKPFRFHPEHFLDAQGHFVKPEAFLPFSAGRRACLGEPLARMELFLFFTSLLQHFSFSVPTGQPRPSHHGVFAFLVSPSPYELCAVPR
# Description: as §1, §2
# CYP2C9 = biological target: T4, CYP2C9 (Homo sapiens, UniProt P11712); format: in vitro ADME; settings: 5 μM AOH; 120 min incubation; vs CYPnull
# T4 construct: purchased Merck; host or cells: yeast (inferred from the description of the CYPnull control, 'processed identically')
# T4 sequence (P11712 whole entry): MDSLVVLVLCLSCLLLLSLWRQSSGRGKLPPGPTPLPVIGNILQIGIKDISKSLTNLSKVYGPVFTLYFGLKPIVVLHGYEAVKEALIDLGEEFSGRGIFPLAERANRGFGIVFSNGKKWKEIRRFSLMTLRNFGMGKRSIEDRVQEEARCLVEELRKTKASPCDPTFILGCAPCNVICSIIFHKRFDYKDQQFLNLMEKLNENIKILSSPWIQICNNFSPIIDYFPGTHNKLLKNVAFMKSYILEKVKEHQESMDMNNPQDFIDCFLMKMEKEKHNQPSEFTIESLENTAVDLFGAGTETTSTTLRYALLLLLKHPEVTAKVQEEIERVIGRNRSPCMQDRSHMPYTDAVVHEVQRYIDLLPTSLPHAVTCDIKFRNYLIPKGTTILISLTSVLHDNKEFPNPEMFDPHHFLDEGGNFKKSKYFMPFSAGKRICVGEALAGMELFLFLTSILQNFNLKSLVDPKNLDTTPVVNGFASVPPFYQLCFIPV
# Description: as §1, §2
# CYP3A4 = biological target: T5, CYP3A4 (Homo sapiens, UniProt P08684); format: in vitro ADME; settings: 5 μM AOH; 120 min incubation; vs CYPnull
# T5 construct: purchased Merck; host or cells: yeast (inferred from the description of the CYPnull control, 'processed identically')
# T5 sequence (P08684 whole entry): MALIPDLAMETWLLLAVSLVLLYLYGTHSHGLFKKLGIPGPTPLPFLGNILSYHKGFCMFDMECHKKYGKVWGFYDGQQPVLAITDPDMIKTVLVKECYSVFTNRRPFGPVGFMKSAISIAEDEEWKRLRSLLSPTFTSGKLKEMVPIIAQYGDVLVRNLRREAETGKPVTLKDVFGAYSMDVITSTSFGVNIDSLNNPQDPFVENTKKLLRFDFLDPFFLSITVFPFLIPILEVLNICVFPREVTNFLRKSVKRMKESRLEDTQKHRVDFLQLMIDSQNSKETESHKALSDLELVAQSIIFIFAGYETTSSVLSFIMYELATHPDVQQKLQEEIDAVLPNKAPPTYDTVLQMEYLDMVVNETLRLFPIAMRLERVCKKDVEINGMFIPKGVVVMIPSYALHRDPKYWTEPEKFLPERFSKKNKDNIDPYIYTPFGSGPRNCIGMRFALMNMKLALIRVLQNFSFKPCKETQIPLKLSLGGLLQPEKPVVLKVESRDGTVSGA
# Description: as §1, §2
# OATP1B3 = biological target: T6, OATP1B3 (Homo sapiens, UniProt Q9NPD5); assay: cell-based; settings: A431-OATP1B3; pyranine 20 µM; pH 5.5; 30 min; read-out: IC50, OATP1B3 inhibition
# T6 construct: expressed in transfected cells; host or cells: A431
# T6 sequence (Q9NPD5 whole entry): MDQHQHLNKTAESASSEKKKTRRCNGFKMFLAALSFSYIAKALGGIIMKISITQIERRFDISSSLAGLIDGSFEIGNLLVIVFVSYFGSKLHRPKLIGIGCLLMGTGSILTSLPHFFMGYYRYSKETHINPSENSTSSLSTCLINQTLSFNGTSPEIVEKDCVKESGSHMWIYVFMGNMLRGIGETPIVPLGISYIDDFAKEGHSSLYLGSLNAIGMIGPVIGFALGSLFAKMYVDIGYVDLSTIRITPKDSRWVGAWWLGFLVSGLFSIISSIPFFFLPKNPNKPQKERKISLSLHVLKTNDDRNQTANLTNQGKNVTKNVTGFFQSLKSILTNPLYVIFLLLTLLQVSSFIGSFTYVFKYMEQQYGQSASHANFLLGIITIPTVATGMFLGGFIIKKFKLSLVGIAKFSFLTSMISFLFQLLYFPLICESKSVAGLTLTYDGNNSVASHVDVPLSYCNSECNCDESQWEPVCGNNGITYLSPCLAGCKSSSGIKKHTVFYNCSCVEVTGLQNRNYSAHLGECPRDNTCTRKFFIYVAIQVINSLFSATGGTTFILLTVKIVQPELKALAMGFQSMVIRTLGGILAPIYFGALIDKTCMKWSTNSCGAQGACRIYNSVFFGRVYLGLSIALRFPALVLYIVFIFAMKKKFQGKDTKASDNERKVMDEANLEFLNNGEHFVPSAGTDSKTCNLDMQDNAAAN
# Description: (§3) A431 cell lines overexpressing human OATPs (1A2, 1B1, 1B3, or 2B1) and their mock transfected controls were generated earlier. A431 cells expressed no or negligible OATPs compared to the overexpressing cell lines. Cells were cultured in Dulbecco’s modified Eagle medium (DMEM, Thermo Fisher Scientific, Waltham, MA, USA) with 10% fetal bovine serum, 2 mM L-glutamine, 100 U/mL penicillin, and 100 µg/mL streptomycin at 37 °C, with 5% CO2. OATP expression was regularly monitored (based on the transport activity of transfected cells), and the cells were used up to 20 passages.
# (§4) Interaction between OATPs (1A2, 1B1, 1B3, and 2B1) and AOH was measured in an indirect transport assay with pyranine or sulforhodamine 101 as fluorescent probes. A431 cell overexpressing OATPs or their mock transfected controls were seeded on 96-well plates one day prior to the measurements in 200 µL DMEM in 8 × 10^4 cells/well density. Before the measurement, the medium was removed, and cells were washed three times with 200 µL PBS (phosphate-buffered saline, pH 7.2) at room temperature. Then the cells were preincubated with 50 µL uptake buffer (125 mM NaCl, 4.8 mM KCl, 1.2 mM CaCl2, 1.2 mM KH2PO4, […], 25 mM MES, and 5.6 mM glucose, with the pH adjusted using 1 M HEPES and 10 N NaOH, pH 5.5 for OATP1B1/1B3/2B1 and pH 7.4 for OATP1A2) with or without increasing concentrations (0.00, 0.16, 0.31, 0.63, 1.25, 2.5, 5.0, 10, and 20 μM) of AOH for 5 min. The reaction was started when the probe was added in 10 µM (pyranine; OATP1B1), 20 µM (pyranine; OATP2B1 and OATP1B3), or 0.5 µM (sulforhodamine 101; OATP1A2) final concentrations. […] Fluorescence was measured in an Enspire plate reader (Perkin Elmer, Waltham, MA, USA) in Ex/Em wavelengths 460/510 nm for pyranine and 586/605 nm for sulforhodamine 101. Bottom reading was applied with two horizontal (X) and two vertical (Y) points, measurement height was 3 mm with 200 flashes. IC50 values were calculated by sigmoidal fitting (Hill1), using the Origin (version 2018, OriginLab Corporation, Northampton, MA, USA) software.
# OATP1A2 = biological target: T7, OATP1A2 (Homo sapiens, UniProt P46721); assay: cell-based; settings: A431-OATP1A2; sulforhodamine 101 0.5 µM; pH 7.4; 10 min; read-out: IC50, OATP1A2 inhibition
# T7 construct: expressed in transfected cells; host or cells: A431
# T7 sequence (P46721 whole entry): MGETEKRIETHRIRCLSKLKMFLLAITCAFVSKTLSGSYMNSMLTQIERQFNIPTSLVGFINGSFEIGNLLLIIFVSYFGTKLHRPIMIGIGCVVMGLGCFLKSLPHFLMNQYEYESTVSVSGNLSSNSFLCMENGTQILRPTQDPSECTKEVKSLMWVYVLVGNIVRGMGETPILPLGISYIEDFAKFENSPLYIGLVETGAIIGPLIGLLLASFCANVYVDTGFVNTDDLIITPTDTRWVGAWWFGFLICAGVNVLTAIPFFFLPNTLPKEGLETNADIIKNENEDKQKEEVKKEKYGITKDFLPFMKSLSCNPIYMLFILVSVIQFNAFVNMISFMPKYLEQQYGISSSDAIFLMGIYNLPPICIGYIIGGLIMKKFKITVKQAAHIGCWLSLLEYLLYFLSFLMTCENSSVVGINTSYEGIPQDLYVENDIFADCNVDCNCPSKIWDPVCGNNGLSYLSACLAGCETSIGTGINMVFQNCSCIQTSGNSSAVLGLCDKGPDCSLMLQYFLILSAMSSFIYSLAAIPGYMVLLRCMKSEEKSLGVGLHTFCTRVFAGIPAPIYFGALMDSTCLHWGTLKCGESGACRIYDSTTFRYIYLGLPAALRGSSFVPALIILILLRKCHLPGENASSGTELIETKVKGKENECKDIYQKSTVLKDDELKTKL
# Description: as §3, §4
# OATP2B1 = biological target: T8, OATP2B1 (Homo sapiens, UniProt O94956); assay: cell-based; settings: A431-OATP2B1; pyranine 20 µM; pH 5.5; 15 min; read-out: IC50, OATP2B1 inhibition
# T8 construct: expressed in transfected cells; host or cells: A431
# T8 sequence (O94956 whole entry): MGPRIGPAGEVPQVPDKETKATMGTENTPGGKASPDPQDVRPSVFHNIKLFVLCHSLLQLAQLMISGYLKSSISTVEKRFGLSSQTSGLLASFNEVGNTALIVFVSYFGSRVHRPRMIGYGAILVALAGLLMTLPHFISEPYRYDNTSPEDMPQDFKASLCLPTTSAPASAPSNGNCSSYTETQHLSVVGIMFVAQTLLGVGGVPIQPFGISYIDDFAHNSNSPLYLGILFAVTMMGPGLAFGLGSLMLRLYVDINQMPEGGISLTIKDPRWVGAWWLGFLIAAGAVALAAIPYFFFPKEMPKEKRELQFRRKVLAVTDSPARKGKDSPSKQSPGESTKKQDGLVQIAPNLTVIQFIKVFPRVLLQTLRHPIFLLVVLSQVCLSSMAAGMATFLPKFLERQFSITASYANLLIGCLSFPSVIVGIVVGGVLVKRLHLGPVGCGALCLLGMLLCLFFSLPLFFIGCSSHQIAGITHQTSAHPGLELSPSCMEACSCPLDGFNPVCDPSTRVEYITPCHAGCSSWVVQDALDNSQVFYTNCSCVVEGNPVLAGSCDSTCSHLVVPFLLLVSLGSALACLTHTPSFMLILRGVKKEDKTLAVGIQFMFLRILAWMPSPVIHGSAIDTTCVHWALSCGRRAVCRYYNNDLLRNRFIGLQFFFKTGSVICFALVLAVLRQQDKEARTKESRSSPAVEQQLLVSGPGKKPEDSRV
# Description: as §3, §4
structure (smiles),measurement,setting,value
"Cc1cc(O)cc2oc(=O)c3c(O)cc(O)cc3c12 [AOH, Alternariol]",changes in AOH levels in the presence of CYP2C19,CYP2C19,slight decrease
same,depletion of AOH by CYP1A2,CYP1A2; 60 min incubation,16%
same,depletion of AOH by CYP1A2,CYP1A2; 120 min incubation,25%
same,changes in AOH levels in the presence of CYP2D6,CYP2D6,no relevant changes
same,changes in AOH levels in the presence of CYP2C9,CYP2C9,no relevant changes
same,changes in AOH levels in the presence of CYP3A4,CYP3A4,no relevant changes
same,IC50,OATP1B3,4.1 µM
same,IC50,OATP1A2,5.4 µM
same,IC50,OATP2B1,1.9 µM
